Reference: patent US10501434B2, “Configurational stereoisomer of difethialone, composition and rodenticidal bait comprising same, and process for controlling target rodent pests” (priority 2015, dated 2019)

Assay type: in vivo, rat
Conditions: liver of rats which died between D9 and D10 after consuming the 11.8 ppm bait
Method: The acetonitrile solution containing difethialone is analysed by high-pressure liquid chromatography on a LUX® Cellulose-3 chiral column (Phenomenex, Le Pecq, France) (150×2 mm, particle size of 3 μm) as described in point A2) above.
The values, expressed as micrograms of laevorotatory enantiomer of said hetero-stereoisomer (“DFN-Hetero-laevo”) per gram of liver, are given in table 3 below.

O=c1sc2ccccc2c(O)c1C1CC(c2ccc(-c3ccc(Br)cc3)cc2)Cc2ccccc21 (stereo not shown) [Total difethialone, 3-(4′-bromobiphenyl-4-yl)-1-(4-hydroxythiocoumarin-3-yl)-1,2,3,4-tetrahydronaphthalene]
Hepatic content, Mean: 11.3 µg/g
